Blank lines part the entries; values can stand above or below the substance they belong to.
What was measured:
[1] = acid-base titration of elastic-contractile model proteins (pKa shift, Hill plot); type: physicochemical; details: for ΔGap / ΔpKa: chemically-synthesized negatively-charged polymers of FIG. 3
[2] = controlled release of charged drug from oppositely charged ECMP; type: physicochemical; details: release of Leu-enkephalin amide (LEA+); for zero order release level per day: after burst release, constant surface area
Text: For controlled release of pharmaceuticals, positively charged drugs packaged in negatively charged ECMP result in zero-order release. Once the rate of drug release and its ΔGap have been determined for one member of a related family of ECMP, the release rates for another member of the family can be calculated from the acid-base titration data. […] Thus, the thermodynamics of model protein hydration can be determined for a designed ECMP with a known release rate and used to calculate the release rates of a drug from a related ECMP for which only the acid-base titration data has been determined.
FIG. 3 is a plot showing controlled release of positively charged Leu-enkephalin amide (H+-Tyr-Gly-Gly-Phe-Leu-NH2, (SEQ ID NO:6), LEA+) using chemically-synthesized, negatively-charged polymers with designed increases in hydrophobicity giving ΔpKa values of 0.9, 1.3, and 2.2 and ΔGap values of 1.2, 1.8, and 3.0 kcal/mol-E, respectively. After burst release due to 50% excess drug over polymer sites, a constant surface area maintains zero order release levels per day continuing at 4.7 μmole for 25 days, 2.7 μmole for 30 days, and 1.9 μmole for 70 days, respectively. The amino acid sequences from top to bottom are: SEQ ID NO:12, SEQ ID NO:13 and SEQ ID NO:14.
FIG. 5 is a pair of graphs of release profiles showing lower rates of drug release as n of nF increases, that is, as increasing numbers of Val (V) residues are replaced by Phe (F) residues using the series of Lys(K)/Phe(F)-containing model proteins of Table 3 with Φ=K. As the negatively-charged drug is added to the soluble positively-charged model protein phase separation occurs. Drug is added to a 50% excess, which is responsible for the burst release. A. Dexamethasone-phosphate release curves and B. Betamethasone-phosphate release curves.

[3] = cited from earlier work; for ΔG°HA(GχGVP): reference GGGVP = 0; for ΔG°HA(GχGVP) (from graph): Tt used to obtain value from experimental sigmoid curve of Tt versus ΔG°HA; for ΔG°HA(GχGVP) (data within parentheses): microbial preparations of poly(30 mers), n ≈ 40
[4] = cited from earlier work; for Tt: guest residue χ in poly[fχ(GχGVP),fv(GVGVP)], extrapolated to fχ=1, some cells marked (Tt); for Tt (data within parentheses): microbial preparations of poly(30 mers) (GVGVP GVGVP GχGVP GVGVP GVGVP GVGVP)n, n ≈ 40
[5] = differential scanning calorimetry of the inverse temperature transition: ΔGHA-based hydrophobicity scale; type: physicochemical; details: from Table 1
Text: Described herein is a hydrophobicity scale based on the change in Gibbs free energy of hydrophobic association. Increase in entropy of water drives endothermic phase transition of hydrophobic association. For a narrow phase transition the chemical potential, t, of the molecules in the phase separated, hydrophobically associated state, 1.IHA, and the solution, hydrophobically dissociated state, 1.1HD, are equal. Therefore, at constant temperature and pressure, i.e., at equilibrium, the change in Gibbs free energy for the phase transition is zero, (ΔGt)TP=0 and ΔHT=TtΔSt. For the breadth of the transition of elastic-contractile model proteins [ECMP], it is written: ΔHt≈TtΔSt, (1) i.e., the heat of the transition, ΔHt in kcal/mol, is approximated by the product of the temperature of the transition, Tt in ° K, times the entropy change attending the transition, ΔSt in kcal/° K-mol.
The van der Walls interaction is exothermic for the hydrophobic association attending the ITT, yet the ITT is endothermic. […] The derivation of the change in Gibbs free energy for hydrophobic association, ΔGHA, and evaluation by inverse temperature transition of hydrophobic association has been reported previously (D. W. Urry, The Change in Gibbs Free Energy for Hydrophobic Association Derivation and Evaluation by means of Inverse Temperature Transitions. Chem. Phys. Letters 399 (2004) 177-183.), and is given more simply below. […]
Given the above approximation, but also recognizing that ASt is a calculated result from the differential scanning calorimetric measurement of ΔHt, we define the change in Gibbs free energy for hydrophobic association, ΔGHA, as,
The differential scanning calorimetry (DSC) data of ΔHt(GVGVP) (SEQ ID NO:4) and ΔHt(GVGIP) (SEQ ID NO:8) in FIG. 1 of Luan and Urry, J Phys Chem 95:7896-7900, 1991 provide a specific example of the difference that defines ΔGHA. […] This is the same value of 1.5 kcal/mol-CH2 for the addition of a single CH2 as determined by Butler for the alcohol series.
Once the values are determined by difference with ΔHt(GVGVP) (SEQ ID NO:4) as represented in FIG. 1E, they are translated so the reference polymer is taken as (GGGVP (SEQ ID NO:11), as this residue is considered to be close to neutral, being neither polar nor apolar. For use of (GGGVP) (SEQ ID NO:11) as the reference, i.e., ΔHt(GGGVP) (SEQ ID NO:11)=AHt(ref), in Table 3 and FIG. 13, the change in Gibbs free energy for hydrophobic association is indicated as ΔG^oHA, i.e., […]
In this case most of the ΔG^oHA values have been obtained by taking the experimental Tt, suitably extrapolated to fx=1 to obtain Tt, and reading the value of ΔG^oHA from the sigmoid curve of FIG. 13. […]

[6] = Φ = E (glutamic acid, —COOH), cited from earlier work; for (∂ΔG/∂α) slope: from Hill plot; for ΔGgp (pKa shift): unperturbed pKa taken as 4.0

Substance: (GFGFPGEGFPGFGFPGFGFPGEGFPGFGFP)n (GFGFPGEGFPGFGFP) [ECMP2E/10F]
pK of the carboxylate [1]: ~6.2
ΔGap [1]: 3.0 kcal/mol-E
ΔpKa [1]: 2.2
duration of zero order release [2]: 70 days
zero order release level per day [2]: 1.9 µmol

Substance: (GVGIP) [pentamer polymer with a single CH2 added to GVGVP]
ΔGHA due to the addition of a single CH2 ([3]; DSC, difference of ΔHt(GVGVP) and ΔHt(GVGIP)): −1.5 kcal/mol-pentamer

Substance: Asn [N: Asn]
Tt [4]: 50 °C
ΔG°HA(GχGVP) ([3]; DSC): −0.05 kcal/mol-pentamer

Substance: Asp(COOH) [D°: Asp(COOH)]
Tt [4]: 40 °C
ΔG°HA(GχGVP) ([3]; DSC): −0.40 kcal/mol-pentamer

Substance: Asp(COO−) [D−: Asp(COO−)]
Tt [4]: 170 (Tt) ° C.
ΔG°HA(GχGVP) (from graph) [3]: ≈+3.4 (from graph) kcal/mol-pentamer

Substance: Cys [C: Cys]
Tt [4]: 30 (Tt) ° C.
ΔG°HA(GχGVP) (from graph) [3]: −1.90 (from graph) kcal/mol-pentamer

Substance: Gln [Q: Gln]
Tt [4]: 70 °C
ΔG°HA(GχGVP) ([3]; DSC): +0.75 kcal/mol-pentamer

Substance: Glu(COOH) [E°: Glu(COOH)]
Tt [4]: 20 °C
Tt (data within parentheses) [4]: 2 °C
ΔG°HA(GχGVP) ([3]; DSC): −1.30 kcal/mol-pentamer
ΔG°HA(GχGVP) (data within parentheses) [3]: −1.50 kcal/mol-pentamer

ΔGHA of ionization (neutral versus charged residue) [5]: 5.2 kcal/mol-pentamer
Substance: Glu(COO^−) [E−: Glu(COO^−)]
Tt (data within parentheses) [4]: (218) ° C.
ΔG°HA(GχGVP) (data within parentheses) [3]: (+3.72) kcal/mol-pentamer

Substance: Gly [G: Gly]
Tt [4]: 55 °C
ΔG°HA(GχGVP) ([3]; DSC): 0.00 kcal/mol-pentamer

Substance: His+ [H+: His+]
Tt [4]: 30 (Tt) ° C.
ΔG°HA(GχGVP) (from graph) [3]: −1.90 (from graph) kcal/mol-pentamer

Substance: His° [H°: His°]
Tt [4]: −10 (Tt) ° C.
ΔG°HA(GχGVP) (from graph) [3]: −4.80 (from graph) kcal/mol-pentamer

Substance: Ile [I: Ile]
Tt [4]: 10 °C
ΔG°HA(GχGVP) ([3]; DSC): −3.65 kcal/mol-pentamer

change on replacement of Val by Leu (single —CH2—) [5]: −1.55 kcal/mol-CH2
Substance: Leu [L: Leu]
Tt [4]: 5 °C
ΔG°HA(GχGVP) ([3]; DSC): −4.05 kcal/mol-pentamer

Substance: Lys(NH2) [K°: Lys(NH2)]
Tt [4]: 40 °C
Tt (data within parentheses) [4]: 38 °C
ΔG°HA(GχGVP) ([3]; DSC): −0.05 kcal/mol-pentamer
ΔG°HA(GχGVP) (data within parentheses) [3]: −0.60 kcal/mol-pentamer

ΔGHA of ionization (neutral versus charged residue) [5]: 3.5 kcal/mol-pentamer
Substance: Lys(NH3+) [K+: Lys(NH3+)]
Tt (data within parentheses) [4]: (104) ° C.
ΔG°HA(GχGVP) (data within parentheses) [3]: (+2.94) kcal/mol-pentamer

Substance: Met [M: Met]
Tt [4]: 15 °C
ΔG°HA(GχGVP) ([3]; DSC): −1.50 kcal/mol-pentamer

Substance: N-methyl-6-OH 1,4,5,6-tetrahydronicotinamide [Lys (6-OH tetrahydro NMeN)]
Tt linearly extrapolated to fX = 1 ([4]; poly[fV(VPGVG),fX(VPGXG)], 5.0 mg/ml polymer, 0.1M potassium bicarbonate pH 9.5, 0.1M KCl): 15 °C
ΔG°HA from FIG. 13 ([3]; gross estimates from Tt and curve, 5.0 mg/ml polymer, 0.1M potassium bicarbonate pH 9.5, 0.1M KCl): -3.5 kcal/mol

Substance: Phe [F: Phe]
Tt [4]: −45 °C
ΔG°HA(GχGVP) ([3]; DSC): −6.15 kcal/mol-pentamer

Substance: Pro [P: Pro]
Tt [4]: 40 °C
ΔG°HA(GχGVP) ([3]; DSC): −1.10 kcal/mol-pentamer

Substance: SEQ ID NO:12: chemically-synthesized, negatively-charged polymer of FIG. 3, top sequence, least hydrophobic (GVGFPGEGFPGVGVP)
ΔGap [1]: 1.2 kcal/mol-E
ΔpKa [1]: 0.9
duration of zero order release [2]: 25 days
zero order release level per day [2]: 4.7 µmol

Substance: SEQ ID NO:13: chemically-synthesized, negatively-charged polymer of FIG. 3, middle sequence (GEGVPGVGVPGVGFPGFGFPGVGVPGVGVP)
ΔGap [1]: 1.8 kcal/mol-E
ΔpKa [1]: 1.3
duration of zero order release [2]: 30 days
zero order release level per day [2]: 2.7 µmol

Substance: Ser [S: Ser]
Tt [4]: 60 °C
ΔG°HA(GχGVP) ([3]; DSC): +0.55 kcal/mol-pentamer

Substance: Thr [T: Thr]
Tt [4]: 60 °C
ΔG°HA(GχGVP) ([3]; DSC): −0.60 kcal/mol-pentamer

Substance: Trp [W: Trp]
Tt [4]: −105 °C
ΔG°HA(GχGVP) ([3]; DSC): −7.00 kcal/mol-pentamer

Substance: Tyr [Y: Tyr]
Tt [4]: −75 °C
ΔG°HA(GχGVP) ([3]; DSC): −5.85 kcal/mol-pentamer

Substance: Tyr(ϕ-O−) [Y−: Tyr(ϕ-O−)]
Tt [4]: 140 °C
ΔG°HA(GχGVP) ([3]; DSC): +1.95 kcal/mol-pentamer

Substance: Val [V: Val]
Tt [4]: 26 °C
ΔG°HA(GχGVP) ([3]; DSC): −2.50 kcal/mol-pentamer

Substance: [GVGVP GVGFP GΦGFP GVGVP GVGFP GFGFP]n(GVGVP) (GVGVPGVGFPGGFPGVGVPGVGFPGFGFPGVGVP) [E/5F]
(∂ΔG/∂α) slope [6]: 3.0 kcal/mol
ΔGgp (pKa shift) [6]: 3.1 kcal/mol

Substance: [GVGVP GVGFP GΦGFP GVGVP GVGFP GVGFP]n(GVGVP) (GVGVPGVGFPGGFPGVGVPGVGFPGVGFPGVGVP) [E/4F]
(∂ΔG/∂α) slope [6]: 2.2 kcal/mol
ΔGgp (pKa shift) [6]: 2.2 kcal/mol

Substance: [GVGVP GVGFP GΦGFP GVGVP GVGVP GVGVP]n(GVGVP) (GVGVPGVGFPGGFPGVGVPGVGVPGVGVPGVGVP) [E/2F]
(∂ΔG/∂α) slope [6]: 1.3 kcal/mol
ΔGgp (pKa shift) [6]: 1.0 kcal/mol

Substance: [GVGVP GVGVP GΦGVP GVGVP GVGFP GFGFP]n(GVGVP) (GVGVPGVGVPGGVPGVGVPGVGFPGFGFPGVGVP) [E/3F]
(∂ΔG/∂α) slope [6]: 1.7 kcal/mol
ΔGgp (pKa shift) [6]: 1.6 kcal/mol

Substance: [GVGVP GVGVP GΦGVP GVGVP GVGVP GVGVP]n(GVGVP) (GVGVPGVGVPGGVPGVGVPGVGVPGVGVPGVGVP) [E/0F]
(∂ΔG/∂α) slope [6]: 1.1 kcal/mol
ΔGgp (pKa shift) [6]: 0.7 kcal/mol
